Data as given in the supplement of paper PMC10307832.

Experiments:
Test in all cases: relative viability (nuclei count vs DMSO), 5 days (fraction); higher = more cells survive
XMD14-99 + Linsitinib = compound: CN1CCN(CC1)C2=CC(=C(C=C2)NC3=NC(=C(S3)C(=O)C4=C(C=CC=C4Cl)Cl)N)OC [XMD14-99] + C[C@]1(O)C[C@@H](c2nc(-c3ccc4ccc(-c5ccccc5)nc4c3)c3c(N)nccn32)C1 [Linsitinib] (partner 1 µM)
In short: (§1)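 For relative viability, nuclei counts in treated wells were divided by those in vehicle wells. Lung cancer cell lines had been pin-tool dosed in 1536-well plates the day after seeding and cultured for 5 days, then fixed and stained in one step (final 0.05% Triton X-100, 1% formaldehyde, 1 ug/ml Hoechst) and imaged at 4×. Doses were one drug alone or a fixed anchor-drug dose plus five library-drug doses (not always all listed) in √10 steps, and values are duplicate-plate medians.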

AZD1208 + Crizotinib = compound: N[C@@H]1CCCN(c2c(/C=C3\SC(=O)NC3=O)cccc2-c2ccccc2)C1 [AZD1208] + C[C@@H](Oc1cc(-c2cnn(C3CCNCC3)c2)cnc1N)c1c(Cl)ccc(F)c1Cl [Crizotinib] (partner 1 µM)
In short: as §1

AZD1208 + Pemetrexed = compound: N[C@@H]1CCCN(c2c(/C=C3\SC(=O)NC3=O)cccc2-c2ccccc2)C1 [AZD1208] + Nc1nc2[nH]cc(CCc3ccc(C(=O)N[C@@H](CCC(=O)O)C(=O)O)cc3)c2c(=O)[nH]1 [Pemetrexed] (partner 0.2 µM)
In short: as §1

AZD1208 + Olaparib = compound: N[C@@H]1CCCN(c2c(/C=C3\SC(=O)NC3=O)cccc2-c2ccccc2)C1 [AZD1208] + O=C(c1cc(Cc2n[nH]c(=O)c3ccccc23)ccc1F)N1CCN(C(=O)C2CC2)CC1 [Olaparib] (partner 8 µM)
In short: as §1

Cell Line | relative viability (XMD14-99 + Linsitinib; first compound 0.08 µM) | relative viability (XMD14-99 + Linsitinib; first compound 0.8 µM) | relative viability (XMD14-99 + Linsitinib; first compound 2.53 µM) | relative viability (XMD14-99 + Linsitinib; first compound 8 µM) | relative viability (AZD1208 + Crizotinib; first compound 0.08 µM) | relative viability (AZD1208 + Crizotinib; first compound 0.253 µM) | relative viability (AZD1208 + Crizotinib; first compound 0.8 µM) | relative viability (AZD1208 + Crizotinib; first compound 2.53 µM) | relative viability (AZD1208 + Crizotinib; first compound 8 µM) | relative viability (AZD1208 + Pemetrexed; first compound 0.08 µM) | relative viability (AZD1208 + Pemetrexed; first compound 0.253 µM) | relative viability (AZD1208 + Pemetrexed; first compound 0.8 µM) | relative viability (AZD1208 + Pemetrexed; first compound 2.53 µM) | relative viability (AZD1208 + Pemetrexed; first compound 8 µM) | relative viability (AZD1208 + Olaparib; first compound 0.08 µM) | relative viability (AZD1208 + Olaparib; first compound 0.253 µM) | relative viability (AZD1208 + Olaparib; first compound 0.8 µM) | relative viability (AZD1208 + Olaparib; first compound 2.53 µM) | relative viability (AZD1208 + Olaparib; first compound 8 µM)
SK-MES-1 | 1.08 | 1.04 | 1.03 | 0.754 | 1.07 | 0.944 | 0.909 | 0.974 | 0.78 | 0.993 | 0.999 | 0.956 | 0.842 | 0.864 | 0.697 | 0.715 | 0.672 | 0.653 | 0.577
NCI-H1437 | 0.961 | 0.983 | 0.735 | 0.387 | 0.979 | 0.961 | 1.03 | 0.998 | 1.04 | 0.302 | 0.307 | 0.327 | 0.355 | 0.322 | 0.651 | 0.648 | 0.606 | 0.673 | 0.676
LU99A | 0.511 | 0.396 | 0.488 | 0.425 | 0.517 | 0.541 | 0.519 | 0.488 | 0.446 | 0.198 | 0.237 | 0.233 | 0.198 | 0.205 | 0.273 | 0.266 | 0.273 | 0.235 | 0.246
HCC-827 | 0.991 | 0.86 | 0.828 | 0.802 | 0.93 | 0.992 | 0.931 | 0.915 | 0.936 | 0.278 | 0.26 | 0.308 | 0.269 | 0.265 | 0.623 | 0.669 | 0.389 | 0.641 | 0.338
